Measurements as given in patent publication EP0580409A2, “Cosmetic composition containing DOPA derivatives” (UNILEVER PLC, priority 1992, dated 1994).
Counter-ions that a name gives are not always drawn.

Experiments:
[1] = test system: isolated living human hair follicles; assay: in vitro test of darkening of hair on regrowth with isolated hair follicles in culture; type: cell-based
Source text: The isolation of individual hair follicles and their culture will now be described.
The method of testing includes the important step of isolating hair follicles having an undamaged hair bulb from skin, preferably from human skin, by microdissection, but preferably without the enzymic pretreatment advocated by other workers in this field.
The critical step of separating the hair follicle with intact undamaged hair bulb from the subcutaneous fatty tissue in which it is situated accordingly involves severing the hair shaft of the follicle at a point below the epidermis or skin surface, so as to leave the hair bulb intact and undamaged while still bearing a portion of the hair shaft.
(§1) In accordance with the preferred method of culture, isolated hair follicles were maintained in 500µl of Williams E medium, containing the test substance (substituted DOPA) at a concentration of 1mM, at 37°C in an atmosphere of 5% CO₂ + 95% air in individual wells of a 24 multiwell dish (Corning), which permitted detailed observations of the colour and measurements to be made of individual hair follicles.
Hair shaft length measurements and colour changes, i.e. darkening, were made on these follicles, using a Nikon Diaphot inverted binocular photo microscope with eye piece measuring graticules, over seven days in culture.
Groups of eight freshly isolated hair follicles were maintained in a Williams E medium under the conditions stated above. For a control group of follicles the medium contained no test substance. For other groups of follicles the medium contained the test substance at 0.1mM concentration of 1mM concentration, In all cases the growth medium additionally contained L-glutamine (2mM), Penicillin (50 IU/ml), streptomycin (50 ug/ml), insulin (10 ug/ml) and hydrocortisone (10 ng/ml).
(§2) The follicles were photographed at the start of the incubation period and again after incubation for two or four days. The growth and morphology of the follicles was monitored during the culture period.

[2] = test system: isolated living human hair follicles; assay: observation of inhibition or damage of cultured hair follicles; type: cell-based; conditions: follicles cultured with test substance at 0.1mM or 1mM
Procedure: as §1
Groups of eight freshly isolated hair follicles were maintained in a Williams E medium under the conditions stated above. For a control group of follicles the medium contained no test substance. […]
as §2
Melanin formation by these follicles was assessed. […] The supernatant was removed, 200ul samples added to a 96 well plate and the melanin content then determined spectrophotometrically at 540nm. […] The protein content of each sample was also determined by the Folin & Lowry method, with the absorbance being read at 540nm. […] Results were expressed as ug melanin/mg soluble protein.

cultured follicles = assay: melanin formation by cultured hair follicles, spectrophotometric at 540nm; type: cell-based, human; conditions: 12 cultured follicles per assay; control 1.11
Procedure: Melanin formation by these follicles was assessed. The procedure was based on that of Gardon and Gilchrest, 1989. For each assay 12 cultured follicles were placed in 500ul of 1M NaOH and incubated overnight at 4°C. The follicles were then homogenised and centrifuged at 14,000 rpm for 2 min. The supernatant was removed, 200ul samples added to a 96 well plate and the melanin content then determined spectrophotometrically at 540nm. A standard curve was also prepared from synthetic melanin dissolved in 1M NaOH. The protein content of each sample was also determined by the Folin & Lowry method, with the absorbance being read at 540nm. […] Results were expressed as ug melanin/mg soluble protein.

[3] = 1mM test substance in Williams E medium, 96 hrs
[4] = 0.1mM test substance in Williams E medium, after 48 hrs

## COC(=O)[C@@H](N)Cc1ccc(OC(C)=O)c(OC(C)=O)c1 [methyl-3,4-diacetyl-L-DOPA hydrochloride]
[1]; [3]
  DARKENING OBSERVED: YES (96 hrs)

## NC(C(=O)O)C(O)c1ccc(O)c(O)c1 (centres unmarked) [Dihydroxyphenylserine, 3,4-dihydroxyphenylserine]
[1]; [4]
  DARKENING OBSERVED: YES (after 48 hrs)
[2]
  inhibit or damage the follicles: did not appear to inhibit or damage the follicles
Cultured follicles
  µg Melanin/mg soluble protein: 6.31 µg Melanin/mg soluble protein

## CC(N)(Cc1ccc(O)c(O)c1)C(=O)O (centres unmarked) [2-methyl-3-(3,4-dihydroxyphenyl)alanine, 2-methyl-3-(3,4-dihydroxyphenylalanine)]
[1]; [4]
  DARKENING OBSERVED: YES (after 48 hrs)
[2]
  inhibit or damage the follicles: did not appear to inhibit or damage the follicles
Cultured follicles
  µg Melanin/mg soluble protein: 8.36 µg Melanin/mg soluble protein

## CC(=O)Oc1ccc(C[C@H](N)C(=O)O)cc1OC(C)=O [3,4-diacetyl-L-DOPA hydrochloride]
[1]; [3]
  DARKENING OBSERVED: YES (96 hrs)
